US12590123B2, “Compounds and methods for treating cancer, viral infections, and allergic conditions” (Washington University, priority 2019, dated 2026)
pIC50: −log10 of the molar value. Where two headings read alike, the source gives them in different places. Blank lines part the entries; values can stand above or below the compound they belong to.

Experiments:
Format in all cases: biochemical
[1] = biological target: T1, recombinant HGFA serine protease domain (Homo sapiens, UniProt Q04756); test: Fluorescent kinetic enzyme assay of HGFA activity (Boc-QLR-AMC); conditions: for pIC50: Table 3, average of three experiments, read-out: HGFA IC50
T1 construct: His6 tag (N); seven amino acid spacer plus TEV cleavage site (N); made in house; host or cells: High 5 insect cells (baculovirus; Sf9 for virus production)
T1 sequence (Q04756 373-655): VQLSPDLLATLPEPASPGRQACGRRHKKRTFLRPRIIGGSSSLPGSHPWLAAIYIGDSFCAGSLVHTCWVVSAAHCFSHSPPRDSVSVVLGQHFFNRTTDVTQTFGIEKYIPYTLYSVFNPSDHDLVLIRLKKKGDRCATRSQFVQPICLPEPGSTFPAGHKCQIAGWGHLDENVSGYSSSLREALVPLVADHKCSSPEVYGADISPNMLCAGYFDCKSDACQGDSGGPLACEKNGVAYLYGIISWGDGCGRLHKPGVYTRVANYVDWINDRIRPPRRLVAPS
Source text: The compounds prepared in Examples 1 to 8 were subjected to a series of inhibitions studies. The compounds were first tested in an HGFA enzymatic assay using the fluorogenic substrate Boc-QLR-AMC with a recombinant form of the HGFA serine protease domain.
This PCR product was cloned into the SfoI-HindIII sites of a modified pFastBac HT baculovirus expression vector (Addgene, Cambridge, MA). This vector contains a six amino His tag followed by a seven amino spacer and a seven amino acid TEV cleavage site placed immediately downstream of the honey bee melittin signal peptide. Using a modified Bac to Bac Expression System (Life Technologies, Carlsbad, CA), recombinant HGFA bacmids were obtained by transforming DH10Bac Escherichia coli cells. To obtain HGFA containing baculovirus, purified bacmids were transfected into Sf9 insect cells. After 5 days in culture at 27° C., media was harvested from transfected Sf9 cells. This media was used to prepare baculovirus infected insect cells (BIICs). These BIIICs were used to infect High 5 insect cells. Four days post infection, media was harvested, and recombinant protein was prepared as follows. Media was chilled to 4° C. and spun at 4000×g for 20 minutes (all subsequent steps were performed at 4° C. unless noted). Clarified media was passed first through a Whatman GF/B 1 um (#1821-047, GE Healthcare Life Sciences, Piscataway, NJ) and then a 0.22 μm PES membrane (#99955, TPP Techno Plastic Products AG, Trasadingen, Switzerland) and then concentrated using a Pall Centramate tangential flow system and Centramate T-series Cassette (#OS010T12, Pall Corporation, Port Washington, NY). Concentrated media was then buffer exchanged in two steps, five volumes of 50 mM Na-phosphate, 500 mM NaCl, pH 6.2, followed by five volumes of 50 mM Na-phosphate, 500 mM NaCl, pH 7.5. […] After mixing this slurry for 12 hours, nickel agarose beads were allowed to settle by gravity and then loaded into a column. Beads were washed with buffer (25 mM Na-phosphate, 500 mM NaCl, 25 mM imidazole, pH 8) and the bound protein eluted using (25 mM Na-phosphate, 500 mM NaCl, 250 mM imidazole, pH 8). Using a Amicon Ultra-4 Centrifugal filters (#UFC801008, Merck Millipore, Ltd., Tullagreen, Ireland), peak protein fractions were concentrated and run over a Superdex-200 10/300 GL column (GE Healthcare Life Sciences, Piscataway, NJ) in 10 mM Tris, 200 mM NaCl, 0.2 mM EDTA, pH 8. HGFA containing fractions were pooled, concentrated, made 50% glycerol, and stored at minus 20° C. Protein was quantitated using a modified Lowry protein assay (#500-0006, Bio-Rad Laboratories, Hercules, CA) and specific activity determined using Boc-QLR-AMC substrate.
Fluorescent kinetic enzyme assays of HGFA, matriptase, and hepsin activity: Compounds (0-20 μM final concentration in reaction) were diluted in DMSO (2% DMSO final concentration in reaction) and then mixed with either recombinant HGFA serine protease domain, matriptase (#3946-SE-010, R&D Systems, Minneapolis, Minnesota), or activated hepsin* (#4776-SE-010, R&D Systems, Minneapolis, Minnesota) in black 384 well plates (Corning #3575. Coming, NY). The final assay concentration for HGFA, matriptase, and hepsin, were 6.25 nM, 0.2 nM, and 0.3 nM, respectively in TNC buffer (25 mM Tris, 150 mM NaCl, 5 mM CaCl2, 0.01% Triton X-100, pH 8). After thirty minutes of incubation at room temperature, Boc-QLR-AMC substrate was added (HGFA assay) or Boc-QAR-AMC substrate (matriptase, and hepsin assays). Fluorescence (excitation at 380 nm and emission at 460 nm) was kinetically measured at room temperature over a 1 hour time period using a Biotek Synergy 2 plate reader (Winnoski, VT). From a plot of the mean reaction velocity versus the inhibitor concentration, a non-linear four parameter curve fit was performed using GraphPad Prism (GraphPad Software, San Diego, CA) to determine inhibitor IC50s. The IC50 values were determined from the average of three or more separate experimental determinations. […]

activated hepsin = biological target: T2, activated hepsin (Homo sapiens, UniProt P05981); test: Fluorescent kinetic enzyme assay of hepsin activity (Boc-QAR-AMC); conditions: for IC50: Table 2, read-out: Hepsin (IC50 nM)
T2 construct: purchased R&D Systems 4776-SE-010
T2 sequence (P05981 163-417 limits assumed): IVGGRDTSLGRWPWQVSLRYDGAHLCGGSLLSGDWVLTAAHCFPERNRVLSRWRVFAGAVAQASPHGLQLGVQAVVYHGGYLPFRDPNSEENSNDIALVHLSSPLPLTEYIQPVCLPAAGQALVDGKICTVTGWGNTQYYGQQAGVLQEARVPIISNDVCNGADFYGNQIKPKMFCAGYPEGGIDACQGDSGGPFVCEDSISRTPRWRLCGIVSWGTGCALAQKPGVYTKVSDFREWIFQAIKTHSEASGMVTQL
T2 sequence (P05981 1-162 partner limits assumed): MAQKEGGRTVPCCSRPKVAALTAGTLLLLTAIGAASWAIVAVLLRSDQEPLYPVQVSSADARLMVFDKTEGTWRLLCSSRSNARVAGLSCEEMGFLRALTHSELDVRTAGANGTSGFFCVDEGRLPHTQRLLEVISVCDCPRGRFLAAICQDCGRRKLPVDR

matriptase = biological target: T3, matriptase (Homo sapiens, UniProt Q9Y5Y6); test: Fluorescent kinetic enzyme assay of matriptase activity (Boc-QAR-AMC); conditions: Table 2; read-out: Matriptase (IC50 nM)
T3 construct: purchased R&D Systems 3946-SE-010
T3 sequence (Q9Y5Y6 615-855 limits assumed): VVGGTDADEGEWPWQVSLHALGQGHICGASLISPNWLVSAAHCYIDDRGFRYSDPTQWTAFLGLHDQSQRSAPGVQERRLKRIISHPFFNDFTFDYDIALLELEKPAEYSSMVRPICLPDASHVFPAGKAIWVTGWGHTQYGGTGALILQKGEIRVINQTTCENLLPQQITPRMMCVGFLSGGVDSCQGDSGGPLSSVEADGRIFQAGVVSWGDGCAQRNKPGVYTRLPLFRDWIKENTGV

[2] = Table 3, average of three experiments, read-out: Hepsin IC50
[3] = Example 12, read-out: IC50 for hepsin

Compound: CC(C)C[C@H](NC(=O)OC1(c2ccccc2)CCNCC1)C(=O)N[C@@H](CCCNC(=N)N)C(=O)c1nc2ccccc2s1 [Compound 8a, 4-phenylpiperidin-4-yl ((S)-1-(((S)-1-(benzo[d]thiazol-2-yl)-5-guanidino-1-oxopentan-2-yl)amino)-4-methyl-1-oxopentan-2-yl)carbamate]
pIC50 [1]: 6.11

Compound: CC(=O)N1CCC(OC(=O)N[C@@H](CC(C)C)C(=O)N[C@@H](CCCNC(=N)N)C(=O)c2nc3ccccc3s2)CC1 [Compound 8e, 1-acetylpiperidin-4-yl ((S)-1-(((S)-1-(benzo[d]thiazol-2-yl)-5-guanidino-1-oxopentan-2-yl)amino)-4-methyl-1-oxopentan-2-yl)carbamate]
pIC50 (activated hepsin; [2]): 7.70

Compound: CC(C)C[C@H](NC(=O)OC1CCN(S(=O)(=O)c2ccccc2)CC1)C(=O)N[C@@H](CCCNC(=N)N)C(=O)c1nc2ccccc2s1 [Compound 8f, 1-(phenylsulfonyl)piperidin-4-yl ((S)-1-(((S)-1-(benzo[d]thiazol-2-yl)-5-guanidino-1-oxopentan-2-yl)amino)-4-methyl-1-oxopentan-2-yl)carbamate]
pIC50 (activated hepsin; [2]): 7.70

Compound: CC(C)C[C@H](NC(=O)OC1CCN(S(=O)(=O)c2ccccc2F)CC1)C(=O)N[C@@H](CCCNC(=N)N)C(=O)c1nc2ccccc2s1 [Compound 8g, 1-((2-fluorophenyl)sulfonyl)piperidin-4-yl ((S)-1-(((S)-1-(benzo[d]thiazol-2-yl)-5-guanidino-1-oxopentan-2-yl)amino)-4-methyl-1-oxopentan-2-yl)carbamate]
pIC50 (activated hepsin; [2]): 7.15

Compound: CCS(=O)(=O)N1CCC(OC(=O)N[C@@H](CC(C)C)C(=O)N[C@@H](CCCNC(=N)N)C(=O)c2nc3ccccc3s2)CC1 [Compound 8h, 1-(ethylsulfonyl)piperidin-4-yl ((S)-1-(((S)-1-(benzo[d]thiazol-2-yl)-5-guanidino-1-oxopentan-2-yl)amino)-4-methyl-1-oxopentan-2-yl)carbamate]
pIC50 (activated hepsin; [2]): 8.00

Compound: CC(C)C[C@H](NC(=O)OC1CCN(S(=O)(=O)c2ccc(Cl)cc2)CC1)C(=O)N[C@@H](CCCNC(=N)N)C(=O)c1nc2ccccc2s1 [Compound 8i, 1-((4-chlorophenyl)sulfonyl)piperidin-4-yl ((S)-1-(((S)-1-(benzo[d]thiazol-2-yl)-5-guanidino-1-oxopentan-2-yl)amino)-4-methyl-1-oxopentan-2-yl)carbamate]
pIC50 (activated hepsin; [2]): 7.22

Compound: CC(C)C[C@H](NC(=O)OC1CCN(S(=O)(=O)c2cccc(F)c2)CC1)C(=O)N[C@@H](CCCNC(=N)N)C(=O)c1nc2ccccc2s1 [Compound 8j, 1-((3-fluorophenyl)sulfonyl)piperidin-4-yl ((S)-1-(((S)-1-(benzo[d]thiazol-2-yl)-5-guanidino-1-oxopentan-2-yl)amino)-4-methyl-1-oxopentan-2-yl)carbamate]
pIC50 (activated hepsin; [2]): 7.15

Compound: CC(C)C[C@H](NC(=O)OC1CCN(S(=O)(=O)c2ccc([N+](=O)[O-])cc2[N+](=O)[O-])CC1)C(=O)N[C@@H](CCCNC(=N)N)C(=O)c1nc2ccccc2s1 [Compound 8k, 1-((2,4-dinitrophenyl)sulfonyl)piperidin-4-yl ((S)-1-(((S)-1-(benzo[d]thiazol-2-yl)-5-guanidino-1-oxopentan-2-yl)amino)-4-methyl-1-oxopentan-2-yl)carbamate]
pIC50 (activated hepsin; [2]): 6.96

Compound: COc1ccc(Cl)cc1S(=O)(=O)N1CCC(OC(=O)N[C@@H](CC(C)C)C(=O)N[C@@H](CCCNC(=N)N)C(=O)c2nc3ccccc3s2)CC1 [Compound 8l, 1-((5-chloro-2-methoxyphenyl)sulfonyl)piperidin-4-yl ((S)-1-(((S)-1-(benzo[d]thiazol-2-yl)-5-guanidino-1-oxopentan-2-yl)amino)-4-methyl-1-oxopentan-2-yl)carbamate]
pIC50 (activated hepsin; [2]): 7.22

Compound: Cc1cc(C)c(S(=O)(=O)N2CCC(OC(=O)N[C@@H](CC(C)C)C(=O)N[C@@H](CCCNC(=N)N)C(=O)c3nc4ccccc4s3)CC2)c(C)c1 [Compound 8m, 1-(mesitylsulfonyl)piperidin-4-yl ((S)-1-(((S)-1-(benzo[d]thiazol-2-yl)-5-guanidino-1-oxopentan-2-yl)amino)-4-methyl-1-oxopentan-2-yl)carbamate]
pIC50 (activated hepsin; [2]): 6.96

Compound: CC1CN(CC2CCN(Cc3ccccc3)CC2)C(=O)N(c2cccc(C(=N)N)c2)C1 (centres unmarked) [SRI 31215, reference compound]
pIC50 [1]: 4.70

The remaining lines, values ahead:

pIC50 (activated hepsin; [3]): 8.10
pIC50 [1]: 4.85
Compound: CC(C)C[C@H](NC(=O)OC(c1ccccc1)C1CCNCC1)C(=O)N[C@@H](CCCNC(=N)N)C(=O)c1nc2ccccc2s1 (stereo partly drawn) [Compound 11a, phenyl(piperidin-4-yl)methyl ((S)-1-(((S)-1-(benzo[d]thiazol-2-yl)-5-guanidino-1-oxopentan-2-yl)amino)-4-methyl-1-oxopentan-2-yl)carbamate]

pIC50 (activated hepsin; [3]): 8.70
pIC50 [1]: 5.22
Compound: CC(C)C[C@H](NC(=O)OC(Cc1ccccc1)C1CCNCC1)C(=O)N[C@@H](CCCNC(=N)N)C(=O)c1nc2ccccc2s1 (stereo partly drawn) [Compound 11b, 2-phenyl-1-(piperidin-4-yl)ethyl ((S)-1-(((S)-1-(benzo[d]thiazol-2-yl)-5-guanidino-1-oxopentan-2-yl)amino)-4-methyl-1-oxopentan-2-yl)carbamate]

IC50 (activated hepsin): 92 nM
IC50 (matriptase): 1.1 nM
IC50 ([1]; Table 2, read-out: HGFA (IC50 nM)): > 20000 nM
Compound: CC(C)C[C@@H]1NC(=O)[C@@H](N)CCCCNC(=O)C[C@@H](C(=O)N[C@@H](CCCNC(=N)N)C(=O)c2nc3ccccc3s2)NC1=O [VD1185, (2S,5S,13S)-13-amino-N—((S)-1-(benzo[d]thiazol-2-yl)-5-guanidino-1-oxopentan-2-yl)-2-isobutyl-3,7,14-trioxo-1,4,8-triazacyclotetradecane-5-carboxamide]

IC50 (activated hepsin): 0.643 nM
IC50 (matriptase): 72.6 nM
Compound: CC(=O)N[C@H]1Cc2ccc(cc2)OC/C=C\CNC(=O)C[C@@H](C(=O)N[C@@H](CCCNC(=N)N)C(=O)c2nc3ccccc3s2)NC(=O)[C@H](CC(C)C)NC1=O [VD4054, (10S,13S,16S,Z)-16-acetamido-N—((S)-1-(benzo[d]thiazol-2-yl)-5-guanidino-1-oxopentan-2-yl)-13-isobutyl-8,12,15-trioxo-2-oxa-7,11,14-triaza-1(1,4)-benzenacycloheptadecaphan-4-ene-10-carboxamide]
